{"source": "patent US10047115B2", "about": "“Cyclic dinucleotides useful for the treatment of inter alia cancer” (priority 2015, dated 2018)", "test_system": "Female Balb/C mice", "assay": "Adjuvant activity in mice, HBsAg model, serum ELISA antibody titers", "settings": "for HBsAg-specific serum IgG: HBsAg administered IM with adjuvant; for Anti-HBsAg titers compared with the nonadjuvanted benchmark: mice vaccinated IM", "experimental": "This objective of this study was to evaluate the potential of STING agonists of the present invention to function as adjuvants in mice using the HBsAg model.\nFemale Balb/C Mice were Vaccinated IM\nVaccines were delivered intramuscularly two times at 21 day intervals, and sera were evaluated for systemic antibody responses. Spleens (3 mice/group) were collected for Luminex/ICS analysis.\nSera were harvested 14dp1 and 14dp2 vaccination. Serum was evaluated by ELISA for anti-HBsAg IgG, IgG1, and IgG2a titers."}
{"smiles": "Nc1nc2c(ncn2[C@@H]2O[C@@H]3COP(=O)(O)O[C@H]4[C@@H](F)[C@H](n5cnc6c(N)ncnc65)O[C@@H]4COP(=O)(O)O[C@@H]2[C@@H]3O)c(=O)[nH]1", "note": "[Example 1, (1R,6R,8R,9R,10R,15R,17R,18R)-17-(2-Amino-6-oxo-6,9-dihydro-1H-purin-9-yl)-8-(6-amino-9H-purin-9-yl)-9-fluoro-3,12,18-trihydroxy-2,4,7,11,13,16-hexaoxa-3λ^5,12λ^5-diphosphatricyclo[13.2.1.0^6,10]octadecane-3,12-dione]", "values": [{"measurement": "HBsAg-specific serum IgG", "value": "high levels"}, {"measurement": "HBsAg-specific IgG levels, dose response", "setting": "four doses, IM", "value": "dose responsive"}, {"measurement": "Anti-HBsAg titers compared with the nonadjuvanted benchmark", "value": "significantly higher"}, {"measurement": "antibody titers compared with cGAMP", "setting": "relative to dose", "value": "no significant differences"}]}
{"smiles": "Nc1nc2c(ncn2[C@@H]2O[C@@H]3COP(=O)(O)O[C@H]4[C@@H](O)[C@H](n5cnc6c(N)ncnc65)O[C@@H]4COP(=O)(O)O[C@@H]2[C@@H]3O)c(=O)[nH]1", "note": "[cGAMP, reference compound]", "values": [{"measurement": "HBsAg-specific serum IgG", "value": "high levels"}, {"measurement": "Anti-HBsAg titers compared with the nonadjuvanted benchmark", "value": "significantly higher"}]}
